Legend:
HCT116 = experiment: Senescence induction by chemotherapeutic drugs (BrdU, SA-β-Galactosidase, p21CIP1); type: cell-based, human; details: 7 days after treatment, doxorubicin 100 nM, etoposide 2 μM, cisplatin 100 μM; for BrdU incorporation (cell division): FIG. 6A; for SA-β-Galactosidase activity / p21^CIP1 expression: FIGS. 6B-C
Description: (§1) IMR90 cells were used to generate inducible ER:RAS (hereinafter iRAS) cells to model Oncogene induced senescence (OIS), through retroviral infection of pLNC-ER:RAS-neo into IMR90 cells followed by selection with Neomycin. IMR90 cells containing the pLNC-ER:RAS plasmid backbone pLXSN were infected in parallel to assess leakiness in the pLNC-ER:RAS system. Treatment with 100 nM 4OHT (Sigma, in DMSO) was used to induce IMR90 ER:RAS cells to undergo oncogene induced senescence (OIS). Therapy induced senescence (TIS) was induced in IMR90 cells by treatment with 33 μM (50 ug/ml) bleomycin sulphate (Generon, HY-17565) for 24 hours, 20 μM palbociclib (Selleckchem, S1116) for 7 days or 100 nM doxorubicin (Cayman chemical, 15007) for 7 days. Senescence was induced in SK-HEP-1 cells by treatment with 2 μM etoposide (Sigma-Aldrich, E1383) for 7 days (FIGS. 4A-C). HCT-116 senescence was induced by 250 nM treatment with doxorubicin (Cayman chemical, 15007) for 48 hours followed by 5 days culture in media without chemotherapy (FIG. 5), or by treatment with 100 nM doxorubicin, 2 μM etoposide or 100 μM cisplatin for 3 days followed by 4 days culture in media without chemotherapy (FIGS. 6A-7C). Senescence was induced in MCF7 by 200 nM treatment with doxorubicin for 7 days, 2 μM etoposide for 7 days or 10 μM cisplatin for 7 days (FIGS. 8A-9C).
(§2) BrdU Incorporation—Cell proliferation was assessed through incorporation of nucleotide analogue 5-Bromo-2′-deoxyuridine (BrdU) into cells. 2×10^3 or 8×10^3 IMR90 cells were seeded into 96-well plates in duplicate for DMSO/palbociclib treated and bleomycin/doxorubicin treated cells respectively. 10 μM BrdU was added to cells 18 h before desired time point and wells were then washed in PBS and fixed using 4% paraformaldehyde (w/v, PBS) for 45 minutes to 1 hour before removal and washing 3 times with PBS. BrdU incorporation was assessed via immunofluorescence and high-content analysis (see section ‘Immunofluorescence & High throughput microscopy’).
(§3) Immunofluorescence staining was carried out by first fixing wells of 96 well plate at desired timepoint for 1 hour using 4% PFA (w/v, in PBS) followed by washing 3 times with PBS. Wells were then permeabilized using 0.2% Triton® X-100 (v/v, PBS) for 10 min or with 0.5% Triton® X-100 (v/v, PBS) for COPI staining. Wells were then washed twice with PBS to halt permeabilization and then non-specific antibody binding blocked by incubation with a blocking solution for 1 hour at RT. Blocking solution contained 1% BSA (w/v, PBS) supplemented with 0.4% Fish Skin Gelatin (v/v, PBS). Primary antibodies were diluted in respective blocking solution (see ‘Antibodies’ for dilutions), blocking solution removed from well and incubated with primary antibody solution for 1 hour at RT. For BrdU staining primary antibody solution is supplemented with 0.5 U/ul DNase (Sigma) and 1 mM MgCl2 and incubation times reduced to 30 minutes. Following incubation, primary antibody was then removed by washing 3 times with PBS. Secondary antibodies conjugated to Alexa-594 or Alexa-488 fluorophores were then diluted in blocking solution added to wells to be incubated in dark for 1 hour. Secondary antibody was then removed by washing 3 times with PBS and nuclei counterstaining with 1 μg/mL DAPI (w/v, PBS) for 10 minutes. Wells were then washed with PBS three times.
(§4) In a second experiment, HCT116 were treated with doxorubicin, etoposide or cisplatin (to induce senescence) or DMSO (as a control). 7 days after treatment, BrdU incorporation (to assess cell division), SA-β-Galactosidase activity and p21^CIP1 expression (as markers of senescence) were analysed. […] Media and compounds were replenished after 72 h of treatment and cultured for 48 h more before fixation and measurement of survival via high-throughput microscopy. DMSO/Doxorubicin/Etoposide (n=4), Cisplatin (n=1).

MCF7 cancer cells = experiment: as above; type: cell-based; details: 7 days after treatment, doxorubicin 200 nM, etoposide 2 μM, cisplatin 10 μM; for BrdU incorporation (cell division): FIG. 8A; for SA-β-Galactosidase activity / p21^CIP1 expression: FIGS. 8B-C
Description: as §1, §2, §3
as §4, with “MCF7 cancer cells” for “In a second experiment, HCT116”, “treatment, analysed” for “treatment,”, “(n=3),” for “(n=4),”, “(n=2).” for “(n=1).”

IMR90 ER:RAS cells = experiment: Senolytic activity under IRE1 inhibition with KIRA6; type: cell-based, human; details: 600 nM KIRA6 from day 4 post-induction; Compound 1 or 2 from day 7; read at day 12; FIGS. 15A-B
Description: High-throughput microscopy survival assay—To assess senolytic effect of drugs, cells were cultured for 7 days, culture media was changed to DM0.5 media and drugs in DMSO were added (<5% v/v final concentration), drugs were replenished after 3 days if assay length was longer than 72 h. Wells were fixed in 4% PFA for 1 hour at day 10 to 14, washed 3 times with PBS and then stained with 1 μg/mL DAPI (w/v, PBS) for 10 minutes. Wells were then washed 3 times with PBS. Optionally plates could be stored at 4° C. for up to 2 weeks and DAPI stained. Image acquisition of DAPI stained cells was performed on an automated InCell Analyser 2000 (GE Healthcare®) and high-content analysis on the InCell Investigator 2.7.3 software used to quantify number of DAPI positive cells per well. A top-hat method was used to segment cell-nuclei based on DAPI stained area and a minimum nuclear area threshold of 80 μm used to exclude debris. For cancer cell lines, nuclear area threshold was reduced to 40 μm. Survival was measured as cell counts relative to DMSO treated quiescent or senescent cells.
To investigate whether the activation of UPR caused by NMT inhibition in senescent cells was responsible for the senolytic potential of NMT inhibitors, cells were treated with KIRA6, a selective inhibitor of IRE1, a kinase necessary for the UPR. IMR90 ER:RAS cells undergoing senescence (after induction with 4OHT), were treated with 600 nM KIRA6 (an IRE1 inhibitor) on day 4 post-induction. On day 7 post-induction, cells were treated with Compound 1 or 2 and 600 nM KIRA6. […] Both NMT inhibitor and Kira6 were replenished 3 days after addition of NMT inhibitor (at day 10 post-induction). Data is shown as mean±SD, n represents independent biological experiments.

[1] = literature: Wilson, O'Connor et al. 2010; cited from earlier work

SA-β-Galactosidase activity (HCT116)	p21^CIP1 expression (HCT116)	Compound	BrdU incorporation (cell division) (HCT116)	BrdU incorporation (cell division) (MCF7 cancer cells)	SA-β-Galactosidase activity (MCF7 cancer cells)	p21^CIP1 expression (MCF7 cancer cells)	Effect of KIRA6 on the senolytic activity of NMT inhibitors (IMR90 ER:RAS cells)	Side effects [1]
upregulated	upregulated	COc1cc([C@@H]2c3cc4c(cc3[C@@H](O[C@@H]3O[C@@H]5CO[C@@H](C)O[C@H]5[C@H](O)[C@H]3O)[C@H]3COC(=O)[C@H]23)OCO4)cc(OC)c1O [etoposide]	stopped proliferating	stopped proliferating	upregulated	upregulated		
upregulated	upregulated	COc1cccc2c1C(=O)c1c(O)c3c(c(O)c1C2=O)C[C@@](O)(C(=O)CO)C[C@@H]3O[C@H]1C[C@H](N)[C@H](O)[C@H](C)O1 [doxorubicin]	stopped proliferating	stopped proliferating	upregulated	upregulated		
		CC(C)(C)c1nc(-c2ccc(NC(=O)Nc3cccc(C(F)(F)F)c3)c3ccccc23)c2c(N)nccn12 [KIRA6, reference compound]					prevented the senolytic activity of NMT inhibitors	
		CC1(C)CCC(c2ccc(Cl)cc2)=C(CN2CCN(c3ccc(C(=O)NS(=O)(=O)c4ccc(N[C@H](CCN5CCOCC5)CSc5ccccc5)c(S(=O)(=O)C(F)(F)F)c4)cc3)CC2)C1 [ABT-263]						significant neutropenia and thrombocytopenia

Compound	SA-β-Galactosidase activity (HCT116)	p21^CIP1 expression (HCT116)	BrdU incorporation (cell division) (HCT116)	BrdU incorporation (cell division) (MCF7 cancer cells)	SA-β-Galactosidase activity (MCF7 cancer cells)	p21^CIP1 expression (MCF7 cancer cells)	Effect of KIRA6 on the senolytic activity of NMT inhibitors (IMR90 ER:RAS cells)	Side effects [1]
N.N.[Cl][Pt][Cl] [cisplatin]	upregulated	upregulated	stopped proliferating	stopped proliferating	upregulated	upregulated		

Source: US12691100B2, “NMT inhibitor treatment of a senescence-associated disease or disorder of the liver” (Imperial College Innovations Limited, priority 2020, dated 2026)
